Laboratory results: US11209437B2, “Fluorescent probe and preparation method and use thereof” (Fluorescence Diagnosis (shanghai) Biotech Company Ltd., priority 2016, dated 2021)

Columns and labels:
[1] = Fluorescence of free probe prior to binding to a protein tag; type: physicochemical
[2] = Viscosity responsiveness: fluorescence emission spectra of probes in glycerol and methanol; type: physicochemical; settings: for Emission wavelength: excited at maximum excitation wavelength of each probe; for Fluorescence ratio in glycerol to methanol: probe 1×10^−5 M
How it was run: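 Each probe, from a 1×10^−2 M DMSO stock, was diluted to a final 1×10^−5 M in glycerol and in methanol. Fluorescence emission spectra were then recorded under identical conditions at each probe's maximum excitation wavelength.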

CLIP protein tags = experiment: Fluorescence activation of probe after incubation with corresponding protein tag (CLIP); type: biochemical; settings: probe 5 μM, protein tag 10 μM, 37° C., 1 hr
Experimental: Probes were mixed with corresponding protein tags to obtain mixed samples, in which the final probe concentration was 5 μM, and the final protein tag concentration was 10 μM. The mixed samples were incubated 37° C. for 1 hr, fluorescence spectrophotometer was used to detect the change in fluorescence intensity, and the results are shown in Table 1.
From the quantum yield of probe bound to protein tag, after reacting with the protein tags, the probes of the Examples could be detected to have significant signal enhancement in corresponding excitation transmission channels, the fluorescence activation multiple reached several hundreds to a thousand or more, and the brightness was high, which illustrates that after the probes of the Examples are bound to the protein tags, fluorescence of the probes can be activated, and the probes have good fluorescent molecular switching properties. In contrast, though the fluorescence of the reference probes could also be activated, the quantum yield of activated fluorescence was very low, and the brightness was very poor. In particular, in view of comparison results between probe 98 and reference probe 99, probe 101 and reference probe 102, probe 103 and reference probe 104, probe 105 and reference probe 106, probe 107 and reference probe 108, probe 109 and reference probe 110, probe 111 and reference probe 112, probe 114 and reference probe 115, probe 117 and reference probe 118, probe 120 and reference probe 121 in Table 1, for the same fluorescent dye, when the ligand is connected to the electron donor part of the fluorescent dye, the fluorescence activation brightness of the probe is much higher than the reference probe in which ligand is connected to the electron acceptor part of the fluorescent dye.

SNAP protein tags = molecular target: T1, SNAP protein tags (Homo sapiens, UniProt P16455, A127T/A154D/C150Q/C62A/E30R/G131K/G132T/G153L/K125A/K32I/L33F/M134L/N157G/Q115S/Q116H/R128A/R135S/S151G/S152D/S159E); experiment: Fluorescence activation of probe after incubation with corresponding protein tag (SNAP); type: biochemical; settings: probe 5 μM, protein tag 10 μM, 37° C., 1 hr
T1 sequence (P16455 1-182 E30R/K32I/L33F/C62A/Q115S/Q116H/K125A/A127T/R128A/G131K/G132T/M134L/R135S/C150Q/S151G/S152D/G153L/A154D/N157G/S159E): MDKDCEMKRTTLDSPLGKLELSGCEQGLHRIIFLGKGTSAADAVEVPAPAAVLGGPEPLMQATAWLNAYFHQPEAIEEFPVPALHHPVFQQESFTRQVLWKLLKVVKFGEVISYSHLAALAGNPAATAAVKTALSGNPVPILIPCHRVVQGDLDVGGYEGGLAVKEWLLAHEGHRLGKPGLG
How it was run: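 Probe (5 μM final) mixed with CLIP or SNAP protein tag (10 μM final) and incubated 1 hr at 37° C. Fluorescence intensity change measured by fluorescence spectrophotometer, with quantum yield of tag-bound probe determined.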

Compound | Quantum yield of free probe [1] | Emission wavelength [2] | Fluorescence ratio in glycerol to methanol [2] | Fluorescence activation multiple (SNAP protein tags) | Quantum yield of probe bound to protein tag (SNAP protein tags) | Fluorescence activation multiple (CLIP protein tags) | Quantum yield of probe bound to protein tag (CLIP protein tags)
CN(CCOC(=O)NCc1ccc(COc2nccc(N)n2)cc1)c1ccc(/C=C(\C#N)C(=O)OC(C)(C)C)cc1 [probe 7] | <0.001 | 480 nm | 1455 | – | – | 1502 | 0.23
CN(CCOC(=O)NCc1ccc(COc2nccc(N)n2)cc1)c1ccc(/C=C(\C#N)c2nc3ccccc3o2)cc1 [probe 8] | 0.0018 | 510 nm | 320 | – | – | 68 | 0.12
CN(CCOC(=O)NCc1ccc(COc2nccc(N)n2)cc1)c1ccc(/C=C(\C#N)c2nc3ccccc3s2)cc1 [probe 9] | <0.001 | 531 nm | 851 | – | – | 745 | 0.21
CN1C(=O)/C(=C/c2ccc(N(C)CCOC(=O)NCc3ccc(COc4nccc(N)n4)cc3)cc2)N=C1/C=C/c1ccccc1 [probe 17] | <0.001 | 580 nm | 402 | – | – | 498 | 0.15
CN(CCOC(=O)NCc1ccc(COc2nccc(N)n2)cc1)c1ccc(C2=C(C#N)C(=C(C#N)C#N)OC2(C)C)cc1 [probe 20] | <0.001 | 535 nm | 341 | – | – | 398 | 0.32
CN(CCOC(=O)NCc1ccc(COc2nccc(N)n2)cc1)c1cc2sc(/C=C(\C#N)C(=O)OC(C)(C)C)cc2s1 [probe 27] | <0.001 | 555 nm | 1134 | – | – | 665 | 0.39
CN(CCOC(=O)NCc1ccc(COc2nccc(N)n2)cc1)c1cc2sc(/C=C(\C#N)c3nc4ccccc4o3)cc2s1 [probe 28] | <0.001 | 590 nm | 1132 | – | – | 551 | 0.31
COCCNC(=O)/C(C#N)=C/c1ccc(-c2ccc(N(C)CCOC(=O)NCc3ccc(COc4nc(N)nc5[nH]cnc45)cc3)s2)s1 [probe 78] | <0.001 | 672 nm | 189 | 369 | 0.28 | – | –
CN(CCOC(=O)NCc1ccc(COc2nc(N)nc3[nH]cnc23)cc1)c1ccc(-c2ccc(/C=C(\C#N)c3nc4ccccc4s3)s2)s1 [probe 79] | <0.001 | 681 nm | 298 | 419 | 0.31 | – | –
CC(C)(C)OC(=O)/C(C#N)=C/c1ccc2c(c1)SCCN2CCOC(=O)NCc1ccc(COc2nc(N)nc3[nH]cnc23)cc1 [probe 83] | <0.001 | 515 nm | 103 | 209 | 0.18 | – | –
CC1=CC(C)(C)N(CCOC(=O)NCc2ccc(COc3nc(N)nc4[nH]cnc34)cc2)c2ccc(/C=C(\C#N)C(=O)OC(C)(C)C)cc21 [probe 87] | <0.001 | 575 nm | 209 | 515 | 0.45 | – | –
CC1=CC(C)(C)N(CCOC(=O)NCc2ccc(COc3nc(N)nc4[nH]cnc34)cc2)c2ccc(/C=C(\C#N)c3nc4ccccc4s3)cc21 [probe 89] | <0.001 | 612 nm | 129 | 421 | 0.32 | – | –
CC1=CC(C)(C)N(CCOC(=O)NCc2ccc(COc3nc(N)nc4[nH]cnc34)cc2)c2ccc(/C=C(\C#N)C(=O)O)cc21 [probe 105] | <0.001 | 510 nm | 328 | 549 | 0.41 | – | –

More lines, main results first:

Quantum yield of free probe [1] | Emission wavelength [2] | Fluorescence ratio in glycerol to methanol [2] | Fluorescence activation multiple (SNAP protein tags) | Quantum yield of probe bound to protein tag (SNAP protein tags) | Compound | Fluorescence activation multiple (CLIP protein tags) | Quantum yield of probe bound to protein tag (CLIP protein tags)
<0.001 | 535 nm | 187 | 391 | 0.15 | N#C/C(=C\c1ccc2c(c1)SCCN2CCOC(=O)NCc1ccc(COc2nc(N)nc3[nH]cnc23)cc1)c1nc2ccccc2o1 [probe 85] | – | –
<0.001 | 550 nm | 214 | 413 | 0.17 | N#C/C(=C\c1ccc2c(c1)SCCN2CCOC(=O)NCc1ccc(COc2nc(N)nc3[nH]cnc23)cc1)c1nc2ccccc2s1 [probe 86] | – | –
<0.001 | 650 nm | 182 | 893 | 0.78 | CN(CCOC(=O)NCc1ccc(COc2nc(N)nc3[nH]cnc23)cc1)c1cc2c(s1)-c1sc(/C=C(/C#N)C(=O)O)cc1C2(C)C [probe 98] | – | –
<0.001 | 481 nm | 362 | 463 | 0.37 | CN(CCOC(=O)NCc1ccc(COc2nc(N)nc3[nH]cnc23)cc1)c1ccc(/C=C(\C#N)C(=O)O)cc1 [probe 101] | – | –
<0.001 | 515 nm | 321 | 651 | 0.27 | N#C/C(=C\c1ccc2c(c1)SCCN2CCOC(=O)NCc1ccc(COc2nc(N)nc3[nH]cnc23)cc1)C(=O)O [probe 103] | – | –
<0.001 | 555 nm | 526 | 564 | 0.47 | CN(CCOC(=O)NCc1ccc(COc2nc(N)nc3[nH]cnc23)cc1)c1cc2sc(/C=C(\C#N)C(=O)O)cc2s1 [probe 107] | – | –
<0.001 | 566 nm | 341 | 546 | 0.33 | CN(CCOC(=O)NCc1ccc(COc2nc(N)nc3[nH]cnc23)cc1)c1ccc(C#C/C=C(\C#N)C(=O)O)cc1 [probe 109] | – | –
<0.001 | 570 nm | 621 | 681 | 0.49 | CN(CCOC(=O)NCc1ccc(COc2nc(N)nc3[nH]cnc23)cc1)c1ccc2cc(/C=C(\C#N)C(=O)O)sc2c1 [probe 111] | – | –
<0.001 | 625 nm | 230 | 328 | 0.27 | CN(CCOC(=O)NCc1ccc(COc2nc(N)nc3[nH]cnc23)cc1)c1ccc2nc(/C=C(\C#N)C(=O)O)sc2c1 [probe 114] | – | –
<0.001 | 620 nm | 321 | 562 | 0.39 | CN(CCOC(=O)NCc1ccc(COc2nc(N)nc3[nH]cnc23)cc1)c1ccc(-c2ccc(/C=C(\C#N)C(=O)O)s2)cc1 [probe 117] | – | –
<0.001 | 656 nm | 421 | 469 | 0.42 | CN(CCOC(=O)NCc1ccc(COc2nc(N)nc3[nH]cnc23)cc1)c1ccc(-c2ccc(/C=C(\C#N)C(=O)O)s2)s1 [probe 120] | – | –
